Values quoted from earlier work in publication PMC6738130 (OncoTargets and therapy, 2019).

How the values were obtained:
[1] = driven by mitochondrial inner membrane potential (ΔΨ=140–180 mV)
tumor = conditions: 5 nmol/kg SkQ1 per day in drinking water

Row | Accumulation into the mitochondrial matrix [1] | Compound | Effect on level of ROS and tumor formation (tumor)
1 | several hundred-fold | COC1=C(OC)C(=O)C(CCCCCCCCCC[P+](c2ccccc2)(c2ccccc2)c2ccccc2)=C(C)C1=O [MitoQ, mitoquinone] | 
2 |  | CC1=C(C)C(=O)C(CCCCCCCCCC[P+](c2ccccc2)(c2ccccc2)c2ccccc2)=CC1=O.[Br-] [SkQ1] | reduced the level of ROS prevented the formation of a tumor
